# Assay results taken from patent US20250032623A1, “HETEROBIFUNCTIONAL COMPOUNDS AND THEIR USE IN TREATING DISEASE” (HALDA THERAPEUTICS OPCO, INC., priority 2021, published 2025).
# Experiments:
# HEK293 cells = assay: Cellular growth inhibition assay (CellTiter-Glo), HEK293 cells; assay type: cell-based; details: Homo sapiens, 72 h, three days compound treatment, CellTiter-Glo 2.0, read-out: CTG HEK293 GI50
# Outline: (§1)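 HEK293 or HeLa cells seeded at 500 cells/well in DMEM with 10% FBS, treated after 24 h with titrated compound for three days at 37 °C, 5% CO2. CellTiter-Glo 2.0 luminescence read on Day 0 and Day 3, normalized to DMSO, four-parameter fit giving GI50.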
# KRAS G12C = target: T1, KRAS G12C (Homo sapiens, UniProt P01116, G12C); assay: KRAS G12C nucleotide exchange assay (SOS1 mediated, HTRF); assay type: biochemical; details: 1 hr pre-incubation at RT, read-out: IC50 (inhibition of KRas G12C)
# T1 construct: Kras (aa 2-169), GST; purchased Reaction Biology Corporation (RBC)
# T1 sequence (P01116 2-169 isoform P01116-2 G12C): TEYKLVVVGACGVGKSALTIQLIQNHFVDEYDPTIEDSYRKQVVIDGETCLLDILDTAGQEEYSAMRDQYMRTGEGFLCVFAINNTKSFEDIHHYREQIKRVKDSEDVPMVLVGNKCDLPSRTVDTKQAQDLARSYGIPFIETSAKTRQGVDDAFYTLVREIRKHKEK
# Outline: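 HTRF nucleotide exchange using KRAS G12C mixed with anti-GST Tb antibody and pre-incubated with compound for 1 h at RT. Exchange was started with SOS1 plus labelled GTP. Compounds ran as 10-point, 3-fold dilutions from 10 μM, with no-SOS1 or top concentration as blank and IC50 from a variable-slope sigmoidal fit.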
# [1] = target: T2, full-length CDK9 (amino acids 1-372; Accession Number NP_001252.1) (Homo sapiens, UniProt P50750); assay: KdELECT binding assay, CDK9
# T2 construct: full-length CDK9 (amino acids 1-372); purchased; host or cells: bacteria (E. coli, BL21-derived, T7 phage)
# T2 sequence (P50750 whole entry, the tested form may be a part): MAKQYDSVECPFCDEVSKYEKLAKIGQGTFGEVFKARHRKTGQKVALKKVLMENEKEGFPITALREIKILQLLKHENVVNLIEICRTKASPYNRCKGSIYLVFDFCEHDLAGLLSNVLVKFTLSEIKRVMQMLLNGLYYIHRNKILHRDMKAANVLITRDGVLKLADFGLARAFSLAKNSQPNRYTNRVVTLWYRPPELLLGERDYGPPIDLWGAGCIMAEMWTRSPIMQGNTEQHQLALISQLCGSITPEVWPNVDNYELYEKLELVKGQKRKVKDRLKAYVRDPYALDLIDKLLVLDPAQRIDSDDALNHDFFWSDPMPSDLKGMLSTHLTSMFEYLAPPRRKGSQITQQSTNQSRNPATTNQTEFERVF
# Protocol: Exemplary compounds were tested for ability to bind to full-length CDK9 (amino acids 1-372; Accession Number NP_001252.1) expressed from bacteria. Compounds were tested using a KdELECT assay.
# Kinase-tagged T7 phage strains were prepared in an E. coli host derived from the BL21 strain. E. coli were grown to log-phase and infected with T7 phage and incubated with shaking at 32° C. until lysis. The lysates were centrifuged and filtered to remove cell debris. The remaining kinases were produced in HEK-293 cells and subsequently tagged with DNA for qPCR detection. Streptavidin-coated magnetic beads were treated with biotinylated small molecule ligands for 30 minutes at room temperature to generate affinity resins for kinase assays. The liganded beads were blocked with excess biotin and washed with blocking buffer (SeaBlock (Pierce), 1% BSA, 0.05% Tween 20, 1 mM DTT) to remove unbound ligand and to reduce non-specific binding. Binding reactions were assembled by combining kinases, liganded affinity beads, and test compounds in 1× binding buffer (20% SeaBlock, 0.17×PBS, 0.05% Tween 20, 6 mM DTT). Test compounds were prepared as 111× stocks in 100% DMSO. Kd values were determined using an 11-point 3-fold compound dilution series with three DMSO control points. All compounds for Kd measurements are distributed by acoustic transfer (non-contact dispensing) in 100% DMSO. The compounds were then diluted directly into the assays such that the final concentration of DMSO was 0.9%. All reactions performed in polypropylene 384-well plate. Each was a final volume of 0.02 mL. The assay plates were incubated at room temperature with shaking for 1 hour and the affinity beads were washed with wash buffer (1×PBS, 0.05% Tween 20). The beads were then re-suspended in elution buffer (1×PBS, 0.05% Tween 20, 0.5 μM nonbiotinylated affinity ligand) and incubated at room temperature with shaking for 30 minutes. The kinase concentration in the eluates was measured by qPCR.
# HeLa cells = assay: Cellular growth inhibition assay (CellTiter-Glo), HeLa cells; assay type: cell-based; details: Homo sapiens, 72 h, three days compound treatment, CellTiter-Glo 2.0, read-out: CTG HELA GI50
# Outline: as §1
compound,measurement,setting,value
"CCc1cnn2c(NCc3ccc(OCCOCCOCCOCCOCCN(C)C/C=C/C(=O)N4CCN(c5nc(OC[C@@H]6CCCN6C)nc6c5CCN(c5cccc7cccc(Cl)c57)C6)C[C@@H]4CC#N)nc3)cc(N3CCCC[C@H]3CCO)nc12 [Compound I-92, 2-((S)-4-(7-(8-chloronaphthalen-1-yl)-2-(((S)-1-methylpyrrolidin-2-yl)methoxy)-5,6,7,8-tetrahydropyrido [3,4-d]pyrimidin-4-yl)-1-((E)-1-((5-(((3-ethyl-5-((S)-2-(2-hydroxyethyl)piperidin-1-yl)pyrazolo[1,5-a]pyrimidin-7-yl)amino)methyl)pyridin-2-yl)oxy)-15-methyl-3,6,9,12-tetraoxa-15-azanonadec-17-en-19-oyl)piperazin-2-yl)acetonitrile]",GI50,HEK293 cells,500 to 1500 nM
same,IC50,KRAS G12C,< 100 nM
same,Kd,[1],> 2500 nM
same,GI50,HeLa cells,< 500 nM
